# Reference: patent US7144880B2, “Compositions relating to novel compounds and targets thereof” (Regents of the University of Michigan, priority 2003, dated 2006)
# Tests used:
# [1] = molecular target: peripheral benzodiazepine receptor (PBR) (Homo sapiens, UniProt P30536); experiment: Binding to the peripheral benzodiazepine receptor
# Ramos cells [2] = experiment: Gene expression profiling (Affymetrix U133A) of treated cells; assay type: cell-based, human; details: versus control cells
# Experimental: In vitro testing with Ramos cells to determine the changes in gene expression (at the level of mRNA) induced by Bz-423 was performed by culturing cells at a density of 500,000 cells per ml. Solvent control (DMSO, final concentration 0.1% V/V]), Bz-423, or Bz-OMe (10 μM) was added to cells. After 4 h, cells were harvested and RNA prepared using Trizol Reagent (#15596-018, Life Technologies, Rockville, Md.) and the RNeasy Maxi Kit (# 75162, Qiagen, Valencia, Calif.) according to manufacturers protocols. Single stranded cDNA was synthesized by reverse transcription using poly (A) RNA present in the starting total RNA sample. Single stranded cDNA was converted into double stranded cDNA and then in vitro transcription carried out in the presence of biotinylated UTP and CTP to produce biotin-labeled cRNA. cRNA was fragmented in the presence of Mg2+, and hybridized to the human genome U133A Genechip array (Affymetrix). Hybridization results were quantified using a GeneArray scanner and analysis carried out according to the instructions provided by Affymetrix. […]
# The data were analyzed to detect genes changes Bz treatment according to the criteria that the log-transformed mean signal changed at least four-fold in treated compared to vehicle control samples and that the coefficient of variance for control values (n=4) was less than 10%. […]
# [3] = tested on: ovarian cells with null p53 (SKOV3); experiment: Antiproliferation, 72 h, media with 10% FBS; assay type: cell-based; details: SKOV3, 72 h, read-out: ED50 (μM) for antiproliferation
# Experimental: (§1) Like most 1,4-benzodiazepines, Bz-423 binds strongly to bovine serum albumin (BSA), which reduces the effective concentration of drug free in solution. For example, in tissue culture media containing 10% (v/v) fetal bovine serum (FBS), ca. 99% of the drug is bound to BSA. Therefore, cell culture cytotoxicity assays are conducted in media with 2% FBS to reduce binding to BSA and increase the free [Bz-423]. Under these conditions, the dose response-curve is quite sharp such that there is a limited concentration range at which Bz-423 is only partly effective. Since some benzodiazepines are known to have anti-proliferative properties, the effect of Bz-423 at concentrations <ED50 were carefully analyzed and observed that in addition to inducing apoptosis, Bz-423 prevented cell growth after 3 d in culture. In these low serum conditions, the cytotoxic and anti-proliferative effects overlapped making it difficult to study each effect independently. […] While higher amounts of drug may also block proliferation, it caused apoptosis well before the effects on proliferation could be observed.
# (§2) To confirm the decrease in cell number relative to control cells after 3 d of treatment is due to decreased proliferation and not cell death balanced by proliferation, in addition to cell counting, cell divisions were studied. PKH-67 is a fluorescent probe that binds irreversibly to cell membranes and upon cell division is partitioned equally between the daughter cells, making it possible to quantify cell division by flow cytometry. Ramos cells stained with PKH67 and treated with Bz-423 had fewer cell divisions at sub-cytotoxic concentrations which confirmed that the decrease in cell number was due to anti-proliferative affects and not cell death. To determine if Bz-423 induced anti-proliferation was specific to Ramos cells, cell counting and cell cycle experiments were done in other B cell lines and cell lines derived from solid tumors.
# [4] = tested on: neuroblastoma cell line IMR-32; experiment: Antiproliferation, 72 h, media with 10% FBS; assay type: cell-based; details: IMR-32, 72 h, read-out: ED50 (μM) for antiproliferation
# Experimental: as §1, §2
# [5] = tested on: neuroblastoma cell line SHEP-1; experiment: Antiproliferation, 72 h, media with 10% FBS; assay type: cell-based; details: SHEP-1, 72 h, read-out: ED50 (μM) for antiproliferation
# Experimental: as §1, §2
# [6] = tested on: malignant B cell line Raji; experiment: Antiproliferation, 72 h, media with 10% FBS; assay type: cell-based; details: read-out: ED50 (μM) for antiproliferation
# Experimental: as §1, §2
# [7] = tested on: neuroblastoma cell line Lan-1; experiment: Antiproliferation, 72 h, media with 10% FBS; assay type: cell-based; details: Lan-1, 72 h, read-out: ED50 (μM) for antiproliferation
# Experimental: as §1, §2
# [8] = tested on: malignant B cell line CA46; experiment: Antiproliferation, 72 h, media with 10% FBS; assay type: cell-based; details: CA46, 72 h, read-out: ED50 (μM) for antiproliferation
# Experimental: as §1, §2
# B cells = experiment: Collapse of mitochondrial ΔΨm detected with DiOC6(3); assay type: cell-based; details: by 5 hours
# Experimental: To detect O2^−, cells are incubated with DHE (10 μM) for 30 min at 37° C. and are analyzed by flow cytometry to measure ethidium fluorescence. Flow analysis of mitochondrial transmembrane potential (ψm) is conducted by labeling cells with DiOC6(3) (20 nM) for 15 min at 37 degrees C. A positive control for disruption of ψm is established using carbonyl cyanide m-chlorophenylhydrazone (CCCP, 50 μM). Caspase activation assays are performed with FAM-VAD-fluoromethylketone. Processing of the substrate is evaluated by flow cytometry.
# To characterize the death mechanism engaged by Bz-423, intracellular ROS, ΔΨm, cytochrome c release, caspase activation, and DNA fragmentation were measured over time (the results presented are for B cells but do characterize the response in many different cell types). The first event detected after exposure to Bz-423 is an increase in the fraction of cells that stain with dihyroethedium (DHE), a redox-sensitive agent that reacts specifically with O2^−.
# Collapse of ΔΨm was detected using DiOC6(3), a mitochondria-selective potentiometric probe.
# Ramos cells [9] = experiment: Cytotoxicity in media containing 10% FBS; assay type: cell-based, human
# Description: as §1, with “Therefore, cell culture cytotoxicity assays are conducted in media with 2% FBS to reduce binding to BSA and increase the free [Bz-423].” left out
# Sequence of peripheral benzodiazepine receptor (PBR) (P30536 whole entry, species assumed): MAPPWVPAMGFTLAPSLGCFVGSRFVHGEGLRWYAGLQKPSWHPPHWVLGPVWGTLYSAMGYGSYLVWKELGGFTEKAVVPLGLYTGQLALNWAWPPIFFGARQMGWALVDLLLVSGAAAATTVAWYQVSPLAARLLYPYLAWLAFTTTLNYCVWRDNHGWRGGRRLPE
structure (smiles),measurement,setting,value
CN1C(=O)C(Cc2ccc3ccccc3c2)N=C(c2ccc(O)cc2)c2cc(Cl)ccc21 (centres unmarked) [Bz-423],Kd,[1],~1 µM
same,Induction of MIF expression,Ramos cells [2],approximately 10 fold
same,EC50,[3],18.2 µM
same,EC50,[4],18 µM
same,EC50,[5],15.9 µM
same,EC50,[6],12.9 µM
same,EC50,[7],13.7 µM
same,EC50,[8],13.4 µM
same,Cells with collapse of ΔΨm,B cells,> 90%
same,Cytotoxicity,Ramos cells [9]; 10–15 μM,minimal cytotoxicity
same,Cytotoxicity,Ramos cells [9]; >20 μM,only apoptosis was observed
